Like-named read-outs stand apart in the source and are kept apart here.

Data on 3 compounds can be found in US9073858B2, “Methods of targeted drug development” (priority 2010, dated 2015).

In test [1] the test system is DNA fragmentation in A549 cells. In words: DNA Fragmentation Assay (Cell Death Detection ELISA). The format is cell-based. The following applies: for Emax at 1 µM / Emax at 10 µM: A549, read-out: % Increase Relative to Staurosporin. For orientation: ELISA stands for enzyme-linked immunosorbent assay.
Another test concerns HT-29 cells. The test is described as follows: HT-29 Cell Proliferation Assay (MTT). The following applies: Homo sapiens, HT-29, 72 h, read-out: IC50 Value (μM) HT-29 Cells. The test is classed as cell-based.
In a further test the test system is MDBK line. In words: MTT Cell Proliferation Assay, MDBK line. The format is cell-based, bovine. The following applies: Bos taurus, MDBK. An outline of the steps: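 Cells plated overnight, then exposed 3 days at 37 °C, 5% CO2 to compound in growth medium with 0.5% FBS and 0.5% DMSO final (0.5% DMSO as control).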
Where [2] appears, read: Homo sapiens, A549, 24 h, read-out: % Increase over Background.

Take `Cc1c(Cl)cnc(NC(c2cccc(Cl)c2Cl)c2ccc3cccnc3c2O)c1F` (stereo not drawn) [AD4-13192]: the activation at 10 µM in test [1] (setting [2]) amounted to 561%. In test [1] (Homo sapiens), the Emax at 1 µM worked out at 11% and the Emax at 10 µM was 55%. The IC50 in the test with HT-29 cells came out at 2.2 µM.
As to `Oc1c(C(Nc2ccccn2)c2ccc(C(F)(F)F)cc2)ccc2cccnc12` (stereo not drawn) [compound 10460], the IC50 turned out to be 375 nM with MDBK line (10 point follow-up, second value of pair, read-out: MTT (10 Point follow-up) MDBK) and 530 nM in the test with MDBK line (72 h, second value of A431/MDBK pair, read-out: MTT-72 h MDBK).
Regarding `Cc1cc(Cl)cnc1NC(c1ccc(Cl)cc1Cl)c1ccc2cccnc2c1O` (stereo not drawn) [AD4-13130], in test [1] (Caspase, DNA Fragmentation, Annexin-V), the apoptotic activity entry is on record as “increased apoptotic activity”. Besides, in test [1] (setting [2]), the activation at 1 µM turned out to be 630% and the activation at 10 µM came out at 684%. For the same compound, in test [1] (Homo sapiens), the Emax at 1 µM amounted to 62% and the Emax at 10 µM was determined as 69%. Moreover, the IC50 in the test with HT-29 cells was determined as 0.64 µM.
